Patent US7507727B2, “Substituted quinobenzoxazine analogs and methods of using thereof” (Cylene Pharmaceuticals, Inc., priority 2003, dated 2009)
Several values for one entry are separate records, joined by “and”; a condition that tells them apart may be missing. Identical values can stand only once. Like-named read-outs stand apart in the source and are kept apart here.

Key:
[1] = test system: native quadruplex structures that regulate different oncogenes; test: Quadrome footprints; format: binding; conditions: FIG. 4
Source text: Quadrome Footprints. Compounds may be evaluated for their ability to bind to other native quadruplex structures of biological relevance, including quadruplex control elements that regulate a range of different oncogenes.

[2] = test system: Salmonella typhimurium (TA97a, TA98, TA100, TA102, TA1535); conditions: for FI / TA100 colony count (Rep 1-3) / TA100 colony count, Mean: dose range
Description: This Mutagenicity Assessment (Ames Assay) evaluated the potential of the test article extracts to induce histidine (his) reversion in S. typhimurium (his− to his+) or tryptophan (trp) reversion in E. coli (trp− to trp+) caused by base changes or frameshift mutations in the genome of tester organisms.
This plate incorporation assay was conducted with five strains of Salmonella typhimurium (TA97a, TA98, TA100, TA102, and TA1535) and one strain of Escherichia coli (WP2-uvrA^−) in the presence and absence of an exogenous mammalian activation system (S9). The test article was dissolved in 5% dextrose. A series of dilutions were then prepared in saline just prior to testing. A Range Finding Study was conducted for this assay to determine the appropriate doses for definitive mutagenicity assessment.
A stock solution of test article was prepared at 20.0 mg/mL as follows: 1.0 g test article was added to 15.0 mL of 0.1 HCl for 1 minute. The test article was stirred for 15 minutes at room temperature. Next 33.0 mL of deionized water was added and allowed to stir for 30 minutes. […] Lower doses were prepared by dilution in 5% dextrose from this stock immediately prior to use. To minimize any change of degradation, the test article solutions were kept on ice after preparation and until just prior to dosing procedures. The test article was administered in vitro, through a solvent compatible with the test system.
This assay has historically been used to detect mutation in a gene of a histidine requiring strain to produce a histidine independent strain or concordantly, to detect mutation in a gene of a tryptophan requiring strain to produce a tryptophan independent strain.
S. typhimurium strain TA1535 and E. coli strain Wp2-uvrA^− were received from American Type Culture Collection, Manassas, Va. […] All working stocks of test strains will be confirmed for genotypic markers and acceptable reversion rates.
Master plates of the tester strains were prepared from frozen working stocks. To create working cultures for each bacterial strain used in the assay, a single colony was transferred from the master plate into Oxoid nutrient broth and incubated, with shaking, at 37±2° C. until an optical density (at 650 nm) of 0.6-1.6 was reached. This overnight culture was used for the mutagenicity test and for genotypic confirmation. Genotype tests were performed.
For both the dose range and mutagenicity test, a top agar consisting of 0.6% Difco agar in 0.5% NaCl was melted and a solution of 0.5 mM L-histidine/0.5 mM biotin or 0.5 mM L-tryptophan was added to the melted top agar at a ratio of 10 mL per 100 mL agar, as required. The supplemented agar was aliquotted, 2 mL per tube and held at 45-47° C. To prepare the top agar for treatment, 0.1 mL of the test article or control, 0.1 mL of the bacterial culture and 0.5 mL of phosphate buffered saline were added to the molten agar. […] Metabolic activation was provided by adding 0.5 mL of the S9 mix in place of the PBS. […] All plates were counted using an automatic image analysis system. Negative control and test article treated plates were also examined for the presence of a bacterial lawn.
The in vitro metabolic activation system used in this assay was comprised of Sprague Dawley rat liver enzymes and a cofactor pool. […] Immediately prior to use, the S9 was thawed and mixed with a cofactor pool to contain 5% S9, 5 mM glucose 6-phosphate, 4 mM β-nicotine-adenine dinucleotide phosphate, 8 mM MgCl2 and 33 mM KCl in a 200 mM phosphate buffer at pH 7.4. The S9 was purchased from Moltox (Boone, N.C.) and maintained frozen at less than −70° C.
For the definitive assay, three dose levels were chosen ([…], and 5.0 mg/mL). This was equivalent to 2.0, 1.0, and 0.5 mg/plate. All treatments, including negative and positive control, were plated in triplicate against test strains TA97a, TA98, TA100, TA102, TA1535, and WP2-uvrA^− in the presence and absence of metabolic activation.

[3] = test system: Escherichia coli (WP2-uvrA−); test: Bacterial mutagenicity test (Ames assay); conditions: E. coli WP2-uvrA−, with and without S9
Description: The test article was dissolved in 5% dextrose.
The pH was then adjusted to 3.53.
94720. […] (ATCC numbers: 29629 and 49979, respectively).
Genotype tests were performed.
Both endpoints serve as toxicity indicators in this assay.

[4] = test system: caspase-3 activation in HCT-116; test: Caspase-3/7 assay; format: cell-based; conditions: HCT-116 cells, 24 hr, 1, 3 and 5 uM
Description: The following protocol was followed (24 hr). On Day 1, seed 0.015×10^6 HCT-116 cells/50 ul/well. Incubate o/n in 37° C. CO2 incubator. On Day 2, remove 25 ul of medium from wells. Treat HCT-116 cells with 1, 3, 5 uM CX-3543. Treat positive control group with Staurosporin 0.01, 0.1, 1 uM. Keep six negative control wells treated with medium only (add 25 ul of diluted sample to appropriate wells). Incubate for 24 h at 37° C. in a CO2 incubator. On Day 3, prepare Apo-ONE Homogeneous Caspase-3/7 assay reagent (Promega) at 10 ul reagent/1 ml buffer. Add 50 ul of diluted reagent. Incubate one hour at room temp. Measure fluorescence at 485/520.

[5] = TA100, with S9 activation, 0.125 mg/plate
[6] = TA100, with S9 activation, 0.25 mg/plate
[7] = TA100, with S9 activation, 0.5 mg/plate
[8] = TA100, with S9 activation, 1.0 mg/plate
[9] = TA100, with S9 activation, 2.0 mg/plate
[10] = TA100, without S9 activation, 0.125 mg/plate
[11] = TA100, without S9 activation, 0.25 mg/plate
[12] = TA100, without S9 activation, 0.5 mg/plate
[13] = TA100, without S9 activation, 1.0 mg/plate
[14] = TA100, without S9 activation, 2.0 mg/plate

CN1CCCC1CCNC(=O)c1cn2c3c(c(N4CCC(c5cnccn5)C4)c(F)cc3c1=O)Oc1cc3ccccc3cc1-2 (stereo not shown) [CX-3543]
selectivity footprint by oncogene [1]: selectively binds to those quadruplexes that are capable of adopting the chair/propeller conformation
mutagenicity (reversion rates) ([2]; S. typhimurium, with and without S9): non-mutagenic
FI [2, 5]: 1.5
TA100 colony count (Rep 1-3) [2, 5]: 175 and 177
TA100 colony count, Mean [2, 5]: 175.7
FI [2, 6]: 1.5
TA100 colony count (Rep 1-3) [2, 6]: 185 and 177 and 189
TA100 colony count, Mean [2, 6]: 183.7
FI [2, 7]: 1.6
TA100 colony count (Rep 1-3) [2, 7]: 182 and 190 and 193
TA100 colony count, Mean [2, 7]: 188.3
FI [2, 8]: 1.4
TA100 colony count (Rep 1-3) [2, 8]: 175 and 147 and 168
TA100 colony count, Mean [2, 8]: 163.3
FI [2, 9]: 1.1
TA100 colony count (Rep 1-3) [2, 9]: 111 and 131 and 137
TA100 colony count, Mean [2, 9]: 126.3
FI [2, 10]: 1.1
TA100 colony count (Rep 1-3) [2, 10]: 153 and 144 and 135
TA100 colony count, Mean [2, 10]: 144.0
FI [2, 11]: 1.1
TA100 colony count (Rep 1-3) [2, 11]: 154 and 148 and 146
TA100 colony count, Mean [2, 11]: 149.3
FI [2, 12]: 1.1
TA100 colony count (Rep 1-3) [2, 12]: 161 and 154 and 137
TA100 colony count, Mean [2, 12]: 150.7
FI [2, 13]: 1.0
TA100 colony count (Rep 1-3) [2, 13]: 147 and 120 and 134
TA100 colony count, Mean [2, 13]: 133.7
FI [2, 14]: 0.9
TA100 colony count (Rep 1-3) [2, 14]: 126 and 117 and 122
TA100 colony count, Mean [2, 14]: 121.7
mutagenicity (reversion rates) [3]: non-mutagenic
caspase-3 levels [4]: dose responsive increase
